The source of these data is patent US20250109151A1, “SILYL-LIPID N-ACYL L-HOMOSERINE LACTONES AS QUORUM SENSING MOLECULES” (The Regents of the University of California, priority 2022, published 2025).

In one series the test system is TNF-α release. The conditions noted are these: LPS-induced model, at 30 min; cited from earlier work.
For series [1] the following is noted: cited from earlier work.
Series [2] concerns the target T1, LasR (Pseudomonas aeruginosa, UniProt P25084).
T1 construct: expressed in transfected cells; host or cells: E. coli (reporter strain)
As to the kind of experiment: cell-based. The note with it: for Emax: read-out: Maximum Activation (%); for designation of the sample in the LasR agonism table: words in brackets after the sample code. The procedure:
15 compounds were assayed for LasR agonism using a beta-glo reporter assay in E. coli.

Series [3] addresses T1, LasR. As to the kind of experiment: LasR antagonism assay. The series is classed as cell-based. The note with it: for Emax: read-out: Maximum Activation (%). The protocol: 3 compounds were assayed for LasR antagonism.
The IC50, […], and Max Activation for each sample is reported below.

T1 sequence (P25084 whole entry): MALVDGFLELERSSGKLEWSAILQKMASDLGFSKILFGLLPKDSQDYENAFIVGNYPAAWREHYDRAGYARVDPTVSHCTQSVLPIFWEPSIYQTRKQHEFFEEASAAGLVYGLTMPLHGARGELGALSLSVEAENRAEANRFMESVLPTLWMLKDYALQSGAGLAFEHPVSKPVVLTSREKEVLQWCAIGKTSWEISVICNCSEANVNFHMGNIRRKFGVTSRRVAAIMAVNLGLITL

Regarding `Cc1ccc(-n2nc(C(C)(C)C)cc2NC(=O)Nc2ccc(OCCN3CCOCC3)c3ccccc23)cc1` [BIRB-796], the TNF-α suppression in the series on TNF-α release was 41%.

Consider `O=C(O)[C@@H]1CCCN1C(=O)OCC1c2ccccc2-c2ccccc21` [Fmoc-Pro], for which, in series [1], the log partition coefficient (Log P) is reported as 0.094.

For the compound `C[Si]1(C)CC(C(=O)O)N(C(=O)OCC2c3ccccc3-c3ccccc32)C1` (stereo not drawn) [Fmoc-Sip], in series [1], the “Log P” value is reported as 1.3.

Turning to `CCCCCCCC[Si](C)(C)CCCCC(=O)N[C@H]1CCOC1=O` [KMM 5-55-2, (S)-5-(dimethyl(octyl)silyl)-N-(2-oxotetrahydrofuran-3-yl)pentanamide], at LasR [2], the Emax was determined as 101%.

For `CC[Si](CC)(CC)CCCCC(=O)N[C@H]1CCOC1=O` [KMM 5-56-2, (S)-N-(2-oxotetrahydrofuran-3-yl)-5-(triethylsilyl)pentanamide], the Emax at LasR [2] was 94.3%.

As to `C[Si](C)(CCCCC(=O)N[C@H]1CCOC1=O)c1ccccc1` [LSD 1-32, (S)-5-(dimethyl(phenyl)silyl)-N-(2-oxotetrahydrofuran-3-yl)pentanamide], the Emax at LasR [2] stood at 96.1%.

For `CCCC[Si](C)(C)CCCCC(=O)N[C@H]1CCOC1=O` [LSD 1-34, (S)-5-(butyldimethylsilyl)-N-(2-oxotetrahydrofuran-3-yl)pentanamide], the Emax at LasR [2] came to 101%.

As to `CCCC[Si](C)(C)CCCCCCC(=O)N[C@H]1CCOC1=O` [LSD 1-35, (S)-7-(butyldimethylsilyl)-N-(2-oxotetrahydrofuran-3-yl)heptanamide], at LasR [2], the Emax was found to be 90.4%.

Turning to `CCCCCCCC[Si](C)(C)CCCCCCC(=O)N[C@H]1CCOC1=O` [LSD 1-59, (S)-7-(dimethyl(octyl)silyl)-N-(2-oxotetrahydrofuran-3-yl)heptanamide], at LasR [2], the Emax was 25% and the “designation of the sample in the LasR agonism table” value (shortened to “designation of the sample”) was “LSD 1-59 (inactive)”.

With `C[Si](C)(CCCCCCC(=O)N[C@H]1CCOC1=O)c1ccccc1` [LSD 2-47, (S)-7-(dimethyl(phenyl)silyl)-N-(2-oxotetrahydrofuran-3-yl)heptanamide], the Emax on LasR [2] came to 99.7%.

As for `CCCC[Si](CCCC)(CCCC)CCCCC(=O)N[C@H]1CCOC1=O` [LSD 2-65, (S)-N-(2-oxotetrahydrofuran-3-yl)-5-(tributylsilyl)pentanamide], at LasR [2], the Emax is 79.8%.

Turning to `C[Si](C)(CCCCC(=O)CC(=O)N[C@H]1CCOC1=O)c1ccccc1` [LSD 2-113, (S)-7-(dimethyl(phenyl)silyl)-3-oxo-N-(2-oxotetrahydrofuran-3-yl)heptanamide], on LasR [2], the Emax turned out to be 106%.

Consider `C[Si](C)(C)O[Si](C)(C)CCCCC(=O)N[C@H]1CCOC1=O` [LSD 2-120, (S)-N-(2-oxotetrahydrofuran-3-yl)-5-(1,1,3,3,3-pentamethyldisiloxaneyl)pentanamide], for which the Emax at LasR [2] was 94%.

Take `C[Si](C)(c1ccccc1)c1ccc(CC(=O)N[C@H]2CCOC2=O)cc1` [LSD 133, (S)-2-(4-(dimethyl(phenyl)silyl)phenyl)-N-(2-oxotetrahydrofuran-3-yl)acetamide]: at LasR [2], it took 0.015 µM to reach a half-maximal effect (EC50), the Emax amounted to 9% and the “designation of the sample” value is on record as “LSD 133 (antagonist)”. At LasR [3], the IC50 came out at 14.6 µM and the Emax came to 97.2%.

`CCCC[Si](C)(C)c1ccc(CC(=O)N[C@H]2CCOC2=O)cc1` [LSD 137, (S)-2-(4-(butyldimethylsilyl)phenyl)-N-(2-oxotetrahydrofuran-3-yl)acetamide]: at LasR [2], the Emax stood at 14.1% and the “designation of the sample” value is “LSD 137 (antagonist)”. Further, on LasR [3], the 50% inhibitory concentration (IC50) came out at 9.3 µM and the Emax is 101%.

For `CC[Si](CC)(CC)CCCCC(=O)CC(=O)N[C@H]1CCOC1=O` [LSD-92, (S)-3-oxo-N-(2-oxotetrahydrofuran-3-yl)-7-(triethylsilyl)heptanamide], the Emax on LasR [2] was 86%.

As a reminder, the Log P is a log measure of how a compound divides between an organic and an aqueous phase. Usually EC50 stands for the concentration that produces a half-maximal response. High values mean weaker potency, low ones greater potency. As a reminder, the IC50 is the concentration that gives 50% inhibition. Lower therefore signals greater potency in that assay.
